Data taken from patent US9616062B2, “Cyclin dependent kinase inhibitors and methods of use” (priority 2009, dated 2017).

System: murine memory and naive T cells
Assay: Homeostatic T cell proliferation in mice (BrdU incorporation, Ki67)
Format: in vivo, mouse
Description: FIG. 11A: Acute inhibition of CDK4/6 selectively suppresses memory T cell homeostatic proliferation in mice. Mice were treated with PD0332991 (150 mg/kg by oral gavage). Proliferation of T-cells were assessed using BrdU and flow cytometry.
Animals were treated with CDK4/6 inhibitor (PD0332991, open bars) or vehicle (shaded bars) for 24 hours and euthanized. Splenocytes were isolated and stained for B and T cell markers. After gating on appropriate populations, Ki67 staining was performed as an indicator of proliferation and S-phase. Error bars show +/−SEM.
Acute, pharmacologic inhibition of CDK4/6 suppresses lymphocyte proliferation with the most pronounced effect on memory T cell homeostatic proliferation and germinal center formation in mice. To determine whether inhibiting CDK4/6 affects memory cell generation and maintenance, mice were treated with selective CDK4/6 inhibitors, PD 0332991 or an unrelated selective CDK4/6 inhibitor, 2BrIC. 2BrIC was synthesized by OTAVA Chemicals (Kiev, Ukraine) and can be prepared according to methods described in Zhu et al., J. Med. Chem. 46, 2027-2030 (2003).

For CC(=O)c1c(C)c2cnc(Nc3ccc(N4CCNCC4)cn3)nc2n(C2CCCC2)c1=O [PD0332991, 6-acetyl-8-cyclopentyl-5-methyl-2-(5-piperazin-1-yl-pyridin-2-ylamino)-8H-pyrido-[2,3-d]-pyrimidin-7-one], the “in vivo BrdU incorporation of CD4+ and CD8+ murine T cells” value (150 mg/kg by oral gavage) was “greatest effects seen in the CD44+CD25+ memory cells” and the “homeostatic proliferation of memory vs naive T cells (BrdU incorporation, Ki67 expression)” value (murine cells, acute inhibition) was “more significant decrease in homeostatic proliferation of memory T cells than naive T cells”.
